Assay results from patent US20110166121A1 (LG LIFE SCIENCES LTD., priority 2008, published 2011).

Molecular target: T1, Human P2Y12 receptor (Homo sapiens, UniProt Q9H244)
T1 construct: expressed in transfected cells; host or cells: HEK cells
Assay: Human P2Y12 receptor cell membrane binding assay with [3H] 2-Mes-ADP
Details: 1 nM [3H] 2-Mes-ADP; for inhibition at 30 µM: 30 μM compound; for IC50: membranes of HEK cells expressing P2Y12 receptor, read-out: Binding activity (IC50)
Protocol: Human P2Y12 Receptor Cell Membrane Binding Assay with [^3H] 2-Mes-ADP
Whether test compounds bind to P2Y12 receptor is measured by [3H]-2MesADP binding in HEK cells expressing P2Y12 receptor. The efficacy according to the amount of test compound can be known through the above test, competitive binding test to P2Y12 receptor, in which the binding material (2-Mes-ADP) is labeled with radioactivity isotope and then the extent of inhibition against the binding of radioactively labeled material is measured.
Preparation of P2Y12 Membrane Protein Fraction
Harvested P2Y12 cells were resuspended with Hypotonic buffer (10 mM HEPES, 10 mM NaCl, 1 mM EDTA, 1 mM EGTA pH 7.4) containing protease inhibitor cocktail. Following the incubation on ice for 15 min, cells were homogenized on ice (Glass/Teflon homogenizer; 1,000 rpm, 10 strokes). The supernant was taken from centrifugation at 500×g for 15 min and then recentrifuged the supernant at 30,000 rpm for 30 min. The membrane pellet was adjusted to 1 mg/mL concentration and stored at −80° C.
P2Y12 Receptor Cell Membrane Binding Assay with [3H] 2-Mes-ADP
The volume of 100 μL of 200 μg membrane protein was aliquoted into 96 well plate. 50 μL volume of test compounds and [^3H] 2-Mes-ADP (final: 1 nM) were added into each well. The total reaction of 0.2 ml/well was incubated for 1 hour at R.T. The reaction was terminated by filtration through GF/B filter using a 96-well cell harvester. […] Radioactivity bound to P2Y12 receptor membrane was counted in a scintillation counter. Total binding was determined with CPM of test group having no compound and non-specific binding was determined with CPM of test group containing 10 μM 2-Mes-ADP. Binding inhibition percent was calculated as follows: [100−(specific binding in the presence of test material/specific binding in the absence of test material×100)].

T1 sequence (Q9H244 whole entry): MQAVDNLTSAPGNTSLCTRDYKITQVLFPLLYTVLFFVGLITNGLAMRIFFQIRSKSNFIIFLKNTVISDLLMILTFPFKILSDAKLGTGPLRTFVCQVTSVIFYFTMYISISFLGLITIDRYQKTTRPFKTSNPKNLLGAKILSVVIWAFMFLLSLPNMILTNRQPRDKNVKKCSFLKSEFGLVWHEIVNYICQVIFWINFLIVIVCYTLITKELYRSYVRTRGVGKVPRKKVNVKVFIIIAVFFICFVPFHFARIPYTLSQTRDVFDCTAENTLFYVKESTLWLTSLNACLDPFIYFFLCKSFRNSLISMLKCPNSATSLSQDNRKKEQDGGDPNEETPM

Structure (SMILES)	inhibition at 30 µM [%]	IC50 [µM]
CCCc1cc2c(N3CCn4c(nnc4C(F)(F)F)C3)nc(Sc3ccccc3)nc2s1 [Example 3-52, 7-(2-Phenylsulfanyl-6-propyl-thieno[2,3-d]pyrimidin-4-yl)-3-trifluoromethyl-5,6,7,8-tetrahydro-[1,2,4]triazolo[4,3-a]pyrazine]	20	–
CCCc1cc2c(N3CCn4c(nnc4C(F)(F)F)C3)nc(C(=O)OCC)nc2s1 [Example 4-1, 6-Propyl-4-(3-trifluoromethyl-5,6-dihydro-8H-[1,2,4]triazolo[4,3-a]pyrazin-7-yl)thieno[2,3-d]pyrimidine-2-carboxylic acid ethyl ester]	–	0.24
CCCc1cc2c(N3CCn4c(nnc4C(F)(F)F)C3)nc(C(=O)O)nc2s1 [Example 4-2, 6-Propyl-4-(3-trifluoromethyl-5,6-dihydro-8H-[1,2,4]triazolo[4,3-a]pyrazin-7-yl)-thieno[2,3-d]pyrimidine-2-carboxylic acid]	–	3.05
CCc1cc2c(N3CCn4c(nnc4C(F)(F)F)C3)nc(C(=O)NCC(=O)O)nc2s1 [Example 4-4, {[6-Ethyl-4-(3-trifluoromethyl-5,6-dihydro-8H-[1,2,4]triazolo[4,3-a]pyrazin-7-yl)-thieno[2,3-d]pyrimidine-2-carbonyl]amino}acetic acid]	–	1
CCc1cc2c(N3CCn4c(nnc4C(F)(F)F)C3)nc(C(=O)NCCO)nc2s1 [Example 4-5, 6-Ethyl-4-(3-trifluoromethyl-5,6-dihydro-8H-[1,2,4]triazolo[4,3-a]pyrazin-7-yl)thieno[2,3-d]pyrimidine-2-carboxylic acid (2-hydroxy-ethyl)amide]	–	1.58
CCc1cc2c(N3CCn4c(nnc4C(F)(F)F)C3)nc(CN3CC[C@@H](O)C3)nc2s1 [Example 4-20, (R)-1-[6-Ethyl-4-(3-trifluoromethyl-5,6-dihydro-8H-[1,2,4]triazolo[4,3-a]pyrazin-7-yl)thieno[2,3-d]pyrimidin-2-ylmethyl]pyrrolidin-3-ol]	–	4.21
CCc1nc2c(N3CCn4c(nnc4C(F)(F)F)C3)nc(N3CCNC(=O)C3)nc2s1 [Example 5-1, 4-[2-Ethyl-7-(3-trifluoromethyl-5,6-dihydro-8H-[1,2,4]triazolo[4,3-a]pyrazin-7-yl)-thiazolo[5,4-d]pyrimidin-5-yl]-piperazin-2-one]	–	0.68
CCc1nc2c(N3CCn4c(nnc4C(F)(F)F)C3)nc(NCCO)nc2s1 [Example 5-2, 2-[2-Ethyl-7-(3-trifluoromethyl-5,6-dihydro-8H-[1,2,4]triazolo[4,3-a]pyrazin-7-yl)-thiazolo[5,4-d]pyrimidin-5-ylamino]-ethanol]	–	2.32
CCc1nc2c(N3CCn4c(nnc4C(F)(F)F)C3)nc(N3CCN(C)CC3)nc2s1 [Example 5-3, 2-Ethyl-5-(4-methyl-piperazin-1-yl)-7-(3-trifluoromethyl-5,6-dihydro-8H-[1,2,4]triazolo[4,3-a]pyrazin-7-yl)-thiazolo[5,4-d]pyrimidine]	–	1.15

Now from value to compound:

inhibition at 30 µM [%]	IC50 [µM]	Structure (SMILES)
–	0.133	CCc1cc2c(N3CCn4c(nnc4C(F)(F)C(F)(F)F)C3)nc(N3CCNC(=O)C3)nc2s1 [Example 6-1, 4-[6-Ethyl-4-(3-pentafluoroethyl-5,6-dihydro-8H-[1,2,4]triazolo[4,3-a]pyrazin-7-yl)-thieno[2,3-d]pyrimidin-2-yl]-piperazin-2-one]
–	1.2	CCc1cc2c(N3CCn4c(nnc4C(F)(F)C(F)(F)F)C3)nc(NCC(O)CO)nc2s1 (stereo not shown) [Example 6-2, 3-[6-Ethyl-4-(3-pentafluoroethyl-5,6-dihydro-8H-[1,2,4]triazolo[4,3-a]pyrazin-7-yl)-thieno[2,3-d]pyrimidin-2-ylamino]-propane-1,2-diol]
–	7	CCc1cc2c(N3CCn4cnnc4C3)nc(N3CCNC(=O)C3)nc2s1 [Example 6-10, 4-[4-(5,6-Dihydro-8H-[1,2,4]triazolo[4,3-a]pyrazin-7-yl)-6-ethyl-thieno[2,3-d]pyrimidin-2-yl]-piperazin-2-one]
39.3	–	CCc1cc2c(N3CCn4cnnc4C3)nc(OCC(O)CO)nc2s1 (stereo not shown) [Example 6-11, 3-[4-(5,6-Dihydro-8H-[1,2,4]triazolo[4,3-a]pyrazin-7-yl)-6-ethyl-thieno[2,3-d]pyrimidin-2-yloxy]-propane-1,2-diol]
–	1.95	CCc1cc2c(N3CCn4c(nnc4-c4ccccc4)C3)nc(N3CCNC(=O)C3)nc2s1 [Example 6-19, 4-[6-Ethyl-4-(3-phenyl-5,6-dihydro-8H-[1,2,4]triazolo[4,3-a]pyrazin-7-yl)-thieno[2,3-d]pyrimidin-2-yl]-piperazin-2-one]
–	7.64	CCc1cc2c(N3CCn4ccnc4C3)nc(N3CCNC(=O)C3)nc2s1 [Example 6-20, 4-[4-(5,6-Dihydro-8H-imidazo[1,2-a]pyrazin-7-yl)-6-ethyl-thieno[2,3-d]pyrimidin-2-yl]-piperazin-2-one]
–	14.5	CCc1cc2c(N3CCn4ccnc4C3)nc(OCC(O)CO)nc2s1 (stereo not shown) [Example 6-21, 3-[4-(5,6-Dihydro-8H-imidazo[1,2-a]pyrazin-7-yl)-6-ethyl-thieno[2,3-d]pyrimidin-2-yloxy]-propane-1,2-diol]
–	10	CCc1cc2c(N3CCn4cc(C(F)(F)F)nc4C3)nc(N3CCNC(=O)C3)nc2s1 [Example 6-22, 4-[6-Ethyl-4-(2-trifluoromethyl-5,6-dihydro-8H-imidazo[1,2-a]pyrazin-7-yl)-thieno[2,3-d]pyrimidin-2-yl]-piperazin-2-one]
–	12	CCc1cc2c(N3CCn4cc(C(F)(F)F)nc4C3)nc(OCC(O)CO)nc2s1 (stereo not shown) [Example 6-23, 3-[6-Ethyl-4-(2-trifluoromethyl-5,6-dihydro-8H-imidazo[1,2-a]pyrazin-7-yl)-thieno[2,3-d]pyrimidin-2-yloxy]-propane-1,2-diol]
–	30	CCc1cc2c(N3CCc4[nH]ncc4C3)nc(N3CCNC(=O)C3)nc2s1 [Example 6-24, 4-[6-Ethyl-4-(1,4,6,7-tetrahydro-pyrazolo[4,3-c]pyridin-5-yl)-thieno[2,3-d]pyrimidin-2-yl]-piperazin-2-one]
38.6	–	CCc1cc2c(N3CCc4[nH]ncc4C3)nc(OCC(O)CO)nc2s1 (stereo not shown) [Example 6-25, 3-[6-Ethyl-4-(1,4,6,7-tetrahydro-pyrazolo[4,3-c]pyridin-5-yl)-thieno[2,3-d]pyrimidin-2-yloxy]-propane-1,2-diol]
–	16.4	CCc1cc2c(N3CCc4[nH]nc(C(F)(F)F)c4C3)nc(N3CCNC(=O)C3)nc2s1 [Example 6-26, 4-[6-Ethyl-4-(3-trifluoromethyl-1,4,6,7-tetrahydro-pyrazolo[4,3-c]pyridin-5-yl)-thieno[2,3-d]pyrimidin-2-yl]-piperazin-2-one]
–	10	CCc1cc2c(N3CCc4ccccc4C3)nc(N3CCNC(=O)C3)nc2s1 [Example 6-27, 4-[4-(3,4-Dihydro-1H-isoquinolin-2-yl)-6-ethyl-thieno[2,3-d]pyrimidin-2-yl]-piperazin-2-one]
–	5.6	CCc1cc2c(N3CCc4cc(OC)c(OC)cc4C3)nc(N3CCNC(=O)C3)nc2s1 [Example 6-28, 4-[4-(6,7-Dimethoxy-3,4-dihydro-1H-isoquinolin-2-yl)-6-ethyl-thieno[2,3-d]pyrimidin-2-yl]-piperazin-2-one]
–	29.8	CCc1cc2c(N3CCc4c([nH]c5ccccc45)C3)nc(N3CCNC(=O)C3)nc2s1 [Example 6-29, 4-[6-Ethyl-4-(1,3,4,9-tetrahydro-beta-carbolin-2-yl)-thieno[2,3-d]pyrimidin-2-yl]-piperazin-2-one]
–	1.04	CCc1cc2c(N3CCc4c(ncnc4C(F)(F)F)C3)nc(N3CCNC(=O)C3)nc2s1 [Example 6-30, 4-[6-Ethyl-4-(4-trifluoromethyl-5,8-dihydro-6H-pyrido[3,4-d]pyrimidin-7-yl)-thieno[2,3-d]pyrimidin-2-yl]-piperazin-2-one]
–	4.66	CCc1cc2c(N3CCc4c(nc(C(F)(F)F)nc4C(F)(F)F)C3)nc(N3CCNC(=O)C3)nc2s1 [Example 6-31, 4-[4-(2,4-Bis-trifluoromethyl-5,8-dihydro-6H-pyrido[3,4-d]pyrimidin-7-yl)-6-ethyl-thieno[2,3-d]pyrimidin-2-yl]-piperazin-2-one]
–	4.64	CCc1cc2c(N3CCc4c(nc(C(F)(F)F)nc4C(F)(F)F)C3)nc(OCC(O)CO)nc2s1 (stereo not shown) [Example 6-32, 3-[4-(2,4-Bis-trifluoromethyl-5,8-dihydro-6H-pyrido[3,4-d]pyrimidin-7-yl)-6-ethyl-thieno[2,3-d]pyrimidin-2-yloxy]-propane-1,2-diol]
–	2.37	CCCc1cc2c(N3CCc4c(nc(C(F)(F)F)nc4C(F)(F)F)C3)nc(N3CCNC(=O)C3)nc2s1 [Example 6-33, 4-[4-(2,4-Bis-trifluoromethyl-5,8-dihydro-6H-pyrido[3,4-d]pyrimidin-7-yl)-6-propyl-thieno[2,3-d]pyrimidin-2-yl]-piperazin-2-one]
